Measurements as given in the NIST ThermoML archive (doi:10.1021/je049605r).
± gives the expanded uncertainty stated by the source.

Experiments:
[1] = refractive index (Na D-line) (dimensionless); settings: 293.2 K; 101.33 kPa; Liquid; Standard Abbe refractometry
[2] = 293.2 K; 101.33 kPa; Liquid

Row | SMILES | refractive index [1] | mass density [2] [kg/m3]
1 | OCC1CCCO1 (stereo unspecified) [2-tetrahydrofurylmethanol] | 1.4525 ± 0.0007 | 1055.1 ± 0.6
2 | Clc1ccccc1 [chlorobenzene] | 1.5244 ± 0.0007 | 1106.2 ± 0.4
3 | C1CCCCC1 [cyclohexane] | 1.4269 ± 0.0007 | 779.3 ± 0.6
4 | OC1CCCCC1 [cyclohexanol] | 1.4648 ± 0.0007 | 963.5 ± 9.6
5 | CC(=O)OC1CCCCC1 [cyclohexyl ethanoate] | 1.441 ± 0.0007 | 970.3 ± 0.3
6 | O [water] | 1.3326 ± 0.0007 | 
